Measurements reported in patent US20040048823A1 (priority 2000, published 2004).

Legend:
[1] = test system: cancer cell lines (Malme3M, SNU1, MDAMB231, MOLT4, TCCSUP, Hep3B); experiment: Mycolactone-induced cancer cell death under light microscope; format: cell-based; details: mycolactone final 1 μg/ml, 72 hours, compared to not-treated
Experimental: Cancer cell lines used for the experiment was as follows; 2 skin cancer cell lines (Malme3M and SK-Mel-24), 1 breast cancer cell line (MDAMB231), 1 leukemia cell line (MOLT4), 1 stomach cancer cell line (SNU1); 1 bladder cancer cell line (TCCSUP), 8 hepatoma cell lines (SK-Hep1, Hep3B, SNU182, SNU387, SNU398, SNU449, SNU475, and HepG2), 2 colon cancer cell lines (HT-29 and DLD-1), and 1 oral cavity cancer cell line (SCC-15). Cancer cells were cultured in RPMI1640 media containing 10% fetal bovine serum, penicillin (10 unit/ml), and streptomycin (100 μg/ml) in 75 cm^2 flask at 37° C. in the presence of 5% CO2.
After cultivation of cancer cells ([…]) in 6-well plate for 24 hours, mycolactone (final 1 μg/ml) was added and the cell morphology was observed after 72 hours under light microscope. Cancer cells became round up and died after mycolactone treatment.
FIGS. (1a to 1f) show the results in skin cancer (Malme3M), stomach cancer (SNU1), breast cancer (MDAMB231), leukemia (MOLT4), bladder cancer (TCCSUP), and hepatoma (Hep3B). The morphological change of colon and oral cavity cancers is not shown.

[2] = test system: Hep3B cancer cells; experiment: Morphological change by transmission electron microscopy; format: cell-based, human; details: mycolactone 1 μg/ml, 24 hours
Experimental: Morphological change of Hep3B cancer cells was observed by transmission electron microscopy (hereinafter, TEM) Cancer cells (5×10^6) were cultured and treated with mycolactone (1 μg/ml). Cell were collected after 24 hours and fixed with 2.5% glutaraldehyde. The sample was treated with OsO4, dehydrated with ethanol, and embedded to […].

[3] = test system: CPP32 caspase and poly-ADP-ribose polymerase in Hep3B cancer cells; experiment: Western blot of CPP32 caspase activation and poly-ADP-ribose polymerase cleavage; format: cell-based, human; details: mycolactone final 1 μg/ml
Experimental: CPP32 caspase activation and following cleavage of poly-ADP-ribose polymerase, typical biochemical phenomena of apoptosis, were examined by Western-blotting. Hep3B cancer cells (5×10^6) were cultured and treated with mycolactone (final 1 μg/ml). Cells were collected after 2, 4, 8, 12, 24, or 48 hours and Western blot was performed with anti-CPP32 antibody (Oncogene, Mass., USA) or anti-poly-ADP-ribose polymerase antibody (Enzyme Systems Products, CA, USA). Protein preparation was performed as follows. Cells were suspended in 400 μl of lysis buffer (125 mM Tris-HCl [pH 6.8], 20% glycerol, 2% SDS, and 10% β-mercaptoethanol), vortexed for 30 seconds, and kept at 95° C. for 5 minutes Cell lysates were separated on a 10% SDS-polyacrylamide gel and transferred to nitrocellulose membrane. Antibody reaction was performed with the antibodies describe above. CPP32 caspase activation was started at 4 hours and maintained until 24 hours, while the cleavage of poly-ADP-ribose polymerase was started at 8 hours after mycolactone treatment. […] Pro-CPP32 and Active CPP32 as shown on left are CPP32 caspase (the caspase 3) before and after activation, respectively; PARP is poly-ADP-ribose polymerase; cleaved PARP is cleaved poly-ADP-ribose polymerase.

[4] = test system: bcl-2 family genes in Hep3B cells; experiment: Ribonuclease protection assay (RPA) of bcl-2 family gene mRNA; format: cell-based, human
Experimental: To find target genes of mycolactone, mRNA transcription levels of bcl-2 family genes were examined. Total RNA was prepared from mycolactone-treated Hep3B cells and the expression of 7 genes belonging to bcl-2 family by ribonuclease protection assay (RPA). Total RNA was prepared with RNeasy minikit (Qiagen Inc., Chatsworth, Calif.) as described below. Mycolactone treated cancer cells were collected and washed with PBS. Cells were suspended in lysis buffer containing β-mercaptoethanol. Cells were passed through a 20-G syringe for more than 5 times. Equal volume of 70% ethanol was added and the suspension was mixed well. The suspension was applied to RNeasy mini spin column. The column was centrifuged at 10,000 rpm for 15 seconds and washed 2 times with washing buffer plus PRE buffer. RNA attached to the column was eluted with RNase-free distilled water. RNA was stored at −70° C. before use.
The mRNA expression profile of bcl-2 family genes was examined by RPA using multi-probe RNase Protection Assay System (PharMingen, CA, USA) with the following procedures. Specific RNA probe labeled with radioisotope is synthesized and used for hybridization with the RNA prepared from each sample. After removal of single-stranded RNA that is not hybridized with the probe and the residual riboprobe, the sample is electrophoresed on a denaturing polyacrylamide gel. After autoradiography, the mRNA expression was analyzed through measuring the density of hybridized bands.
RPA is a 3-Step Procedure
1). Synthesis of probe: Probe is synthesized by incubating transcription mixture solution ([…], 1 μl GACU pool, 2 μl DTT, 4 μl 5× transcription buffer, 1 μl RPA template set, 1 μlA T7 polymerase) at 37° C. for 1 hour. The reaction was stopped by adding 2 μl of DNase. Probe synthesis was completed by phenol treatment and ethanol precipitation The precipitated probe was dissolved in 50 μl of hybridization buffer.
2) RNA preparation and hybridization: Total RNA prepared (10-20 μg) was kept at −70° C. for 15 minutes and dried completely in vacuum evaporator. Hybridization was performed by the following reactions; addition of 8 μl of hybridization buffer, vortexing and brief centrifuge; addition and mixing of 2 μl of probe diluted at about 3×10^5 cpm/μl; addition of mineral oil. Hybridization mixture was kept briefly at 90° C., then incubated at 56° C. for 12 to 16 hours. Hybridization was completed by incubating the mixture at 37° C. for 15 minutes.
3) RNase treatment, electrophoresis, and autoradiography: RNase mixture (100 μl) was added to the hybridization mixture and the non-hybridized RNA was removed by incubating at 30° C. for 45 minutes. RNase digestion was terminated by adding proteinase K mixture solution. After phenol treatment and ethanol precipitation, the sample was dried. The sample was nixed with 5 μl of 1× loading buffer, heated at 90° C. for 3-minutes, kept on ice, electrophoresed ort a denaturing polyacrylamide gel, dried, and exposed to X-ray film.

[5] = test system: Hep3B human hepatoma cells transplanted to nude mice; experiment: In vivo anticancer effect in nude mice
Experimental: Hep3B human hepatoma cells were transplanted to nude mice and tumor growth was induced for 2 to 3 weeks. Then, mycolactone was injected to the tumor tissue by 4-3 days method, that is, injection for 4 days and rest for 3 days. PBS solution (50 μl) with or without mycolactone (20 μg) was injected to tumor of treatment (T) or control (C) mouse, respectively. The tumor volume was estimated by measuring both long and short diameters. The tumor volume at the day of first injection was 101.3 mm^3 (C) or 105.9 mm^3 (T).

[6] = test system: HUVEC (Human umbilical vein endothelial cell); experiment: Tube formation assay (In Vitro Angiogenesis Assay Kit); format: cell-based
Experimental: HUVEC (Human umbilical vein endothelial cell, American Type Culture Collection, Manassas, Va.) cells were maintained in HAM's F-12K nutrient mixture (Sigma, St. Louis, Mo.) with 10% fetal bovine serum and endothelial cell growth supplement (Sigma, St. Louis, Mo.). Cells were plated onto a 1% gelatinized plastic surface and incubated in the presence of 5% CO2 at 37° C. Tube formation assay was performed using an In Vitro Angiogenesis Assay Kit. (Chemicon, Temecula, Calif.) with following procedures. A 50 μl of the Diluent Buffer-ECMatrix solution mixture was transferred to 96-well tissue culture plate and kept at 37° C. for 1 hour for solidification of the matrix solution. HUVEC cells were seeded onto the surface of the polymerized ECMatrix in each well and incubated in the presence of ethanol (control) or mycolactone (containing 1% of ethanol).

[7] = test system: murine L929 cell line; details: cited from earlier work
[8] = test system: murine J779 cell line; details: cited from earlier work
[9] = test system: Rb protein in SNU475 (Rb-positive cancer cell line); experiment: Western blot of Rb protein expression after oligonucleotide transfection; format: cell-based, human; details: SNU475 transfected with 1 uM oligonucleotide, compared to sense Rb oligonucleotide transfectants
Experimental: An Rb-positive cancer cell SNU475 was cultured overnight in 6-well plate (5×10^6 cancer cells per well) with RPMI1640 medium. Sense or antisense Rb oligonucleotide, as described in Example 4, was transfected to the cultured cancer cells using Lipofectamine-PLUS (Gibco BRL, Grand Island, N.Y.) with the following procedures. Sense or antisense Rb oligonucleotide was diluted (final 1 uM) in fetal bovine serum-free RPMI1640 medium. PLUS reagent (Gibco BRL, NY, USA) was added, mixed well, and incubated at room temperature for 15 minutes. During this incubation, Lipofectamine was diluted in fetal bovine serum-fee RPMI1640 medium in separate test tubes. After 15 minutes, 2 solutions were mixed well and incubated at room temperature for 30 minutes for induction of oligonucleotide-Lipofectamine complex formation. During this incubation, the medium in overnight culture of the cancer cells was changed with fresh fetal bovine serum-free RPMI1640 medium. The solution containing oligonucleotide-Lipofectamine complex was carefully dropped on each culture plate and incubated at 37° C. for 3 hours. […]
Nuclear protein fraction was prepared to examine the Rb expression in SNU475 cell line transfected with sense or antisense Rb oligonucleotide by Western blotting. […] The protein concentration in the supernatant was determined and used for Western blotting. […]

CC(=C\C=C\C(C)=C\[C@H](O)[C@@H](O)C[C@H](C)O)/C=C(C)/C=C/C(=O)O[C@H]1CCCC(=O)O[C@@H]([C@@H](C)C/C(C)=C/[C@@H](C)[C@H](O)C[C@@H](C)O)C/C=C(\C)C[C@@H]1C [mycolactone]
cancer cell death, cell morphology under light microscope [1]: Significant cell death | morphology by TEM [2]: typical apoptosis morphologies | CPP32 caspase activation maintained until [3]: 24 h | CPP32 caspase activation started at [3]: 4 h | cleavage of poly-ADP-ribose polymerase started at [3]: 8 h | cleavage of poly-ADP-ribose polymerase ([3]; after 48 hours): completely cleaved | mRNA expression of bcl-2 [4]: very low mRNA expression without significant change | mRNA expression of bcl-w [4]: No change | mRNA expression of mcl-1 ([4]; after 4 hours, maintained until 24 hours): decreased slowly | mRNA expression of mcl-1 ([4]; at 2 hour): increased transiently | mRNA expression of bcl-XL ([4]; starting at 8 hours until 24 hours): decrease | mRNA expression of pro-apoptotic genes (bad, bak, and bax) ([4]; until 24 hours after treatment): no change | tumor tissue inside the body at sacrifice ([5]; day 45, T mouse): not to have any tumor tissue | tumor, treated (T) versus control (C) mouse ([5]; first week, 20 μg injected into tumor, 4 days on, 3 days rest): no significant difference | tumor ([5]; fourth week, T mouse, 20 μg injected into tumor): disappeared | tumor volume ([5]; second week, T mouse, 20 μg injected into tumor, 105.9 mm^3 at first injection): 63.8 mm^3 | tumor volume ([5]; third week, T mouse, 20 μg injected into tumor): 20.8 mm^3 | condition of the treated mouse ([5]; until the day 45, T mouse): healthy | inhibition of tube formation maintained until ([6]; mycolactone 1 μg): 7.5 h | tube formation ([6]; mycolactone 1 μg, after 4 hour): inhibited | tube formation ([6]; mycolactone 5 μg, after 4 hours): almost completely inhibited | cell death with prolonged treatment ([7]; L929, prolonged treatment): apoptosis | cytopathic effects ([7]; L929): detaching of cells from culture plates and cell rounding-up | time to G1 cell cycle arrest ([7]; L929): ≤ 48 h | cell death with prolonged treatment ([8]; J779, prolonged treatment): apoptosis | time to G1 cell cycle arrest ([8]; J779): ≤ 48 h

antisense Rb oligonucleotide: phosphorothioate-backbone antisense oligonucleotide targeting the protein initiation codon region of human Rb mRNA (antisense GGGTTTTGGGCGGCATGA; all phosphorothioate, sugars by position and methylation of C not given here)
Rb protein expression [9]: Significant time-dependent decrease
